Laboratory results published in patent US8653075B2, “Therapeutic methods employing substituted piperidines which are CCR3 antagonists” (Boehringer Ingelheim International GmbH, priority 2009, dated 2014).

Molecular target: T1, human chemokine receptor CCR3 (Homo sapiens, UniProt P51677)
T1 construct: expressed in transfected cells; host or cells: K562 cell line (hCCR3-C1 cells), membrane preparation
T1 sequence (P51677 1-355): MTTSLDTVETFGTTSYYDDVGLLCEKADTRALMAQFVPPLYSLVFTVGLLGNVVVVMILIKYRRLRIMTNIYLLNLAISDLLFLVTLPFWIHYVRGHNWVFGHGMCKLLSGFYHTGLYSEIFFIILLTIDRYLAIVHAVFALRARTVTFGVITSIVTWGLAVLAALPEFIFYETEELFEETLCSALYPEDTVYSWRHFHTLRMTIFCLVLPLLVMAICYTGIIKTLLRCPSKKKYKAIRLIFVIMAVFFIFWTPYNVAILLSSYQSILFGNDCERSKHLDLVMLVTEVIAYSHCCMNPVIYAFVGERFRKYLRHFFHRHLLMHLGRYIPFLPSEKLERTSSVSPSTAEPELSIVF
Assay: CCR3 receptor binding assay (SPA, 125I-eotaxin-1 displacement, hCCR3-C1 K562 cell membranes)
Conditions: human Eotaxin-1 at human CCR3-Rezeptor; for inhibition at 1 µM: read-out: CCR3 % inh @ 1 μM; for Ki: dose range 0.1 to 10000 nM
Procedure: The CCR3 receptor binding test is based on a K562 cell line (leukemia myelogenic blast cells) transfected with the human chemokine receptor CCR3 (hCCR3-C1 cells). The cell membranes were prepared by disrupting the hCCR3-C1 cells by […]. The preparation was centrifuged at 400 g 4° C. for 30 min. The supernatant was transferred into fresh tubes followed by a second centrifugation at 48000 g, 4° C. for 1 h. The membranes were re-suspended in the SPA incubation buffer (25 mM HEPES, 25 mM MgCl2 6×H2O, 1 mM CaCl2 2×H2O) without bovine serum albumin and homogenized by passing through a single use needle (Terumo, 23Gx1″). The membranes were stored in aliquots at −80° C.
The CCR3 receptor binding assay was performed in a Scintillation Proximity Assay (SPA) design with the radioligand recombinant human ^125Iodine-eotaxin-1. Cell membranes of hCCR3 C1 cells were again homogenized by passing through a single use needle (Terumo, 23Gx1″) and diluted in SPA incubation buffer in suitable concentrations (0.5-10 μg protein/well) in 96 well microtiter plates (1450-514, Perkin Elmer). The SPA assay was set up in the SPA incubation buffer with a final volume of 200 μl and final concentration of 25 mM HEPES, 25 mM MgCl2 6×H2O, 1 mM CaCl2 2×H2O and 0.1% bovine serum albumin. The SPA assay mixture contained 60 μl of the membrane suspension, 80 μl of Wheat Germ Agglutinin coated PVT beads (organic scintillator, GE Healthcare, RPNQ-0001) 0.2 mg/well), 40 μl of recombinant human ^125Jodine-eotaxin-1 (Biotrend), diluted in SPA buffer to a final concentration of 30.000 dpm per well, and 20 μl of the test compound (dissolved in DMSO dilutions). The SPA assay mixture was incubated for 2 h at room temperature. Bound radioactivity was determined with a scintillation counter (Micro Beta “Trilux”, Wallac). Included were controls for total binding (no displacer added, Bo) and non-specific binding (NSB) by adding unlabelled recombinant human Eotaxin-1 (Biotrend, Cat #300-21) or a reference compound.
Determination of the affinity of a test compound was calculated by subtraction of the non-specific binding (NSB) from the total binding (Bo) or the binding in the presence of the test compound (B) at a given compound concentration. […] The Bo-NSB value was set to 0% inhibition.
% inhibition and Ki values are (human Eotaxin-1 at human CCR3-Rezeptor): […]

Structure (SMILES) | inhibition at 1 µM (1 μM test compound) [%] | Ki [nM] | CCR3 % inh @ 1 μM (1 μM test compound, 1 µM) [%]
CCCCS(=O)(=O)NC1CCCN(C(=O)[C@@H]2CCC(=O)N2C2CCN(Cc3ccc(Cl)c(C)c3)CC2)C1 (some centres unmarked) [Example 49] | 41 | 1180 | 
COc1cc(OC)nc(CNC(=O)[C@@H]2CCC(=O)N2C2CCN(Cc3ccc(Cl)c(C)c3)CC2)n1 [Example 50] | 41 | 1290 | 
Cc1nc(C2(NC(=O)[C@@H]3CCC(=O)N3C3CCN(Cc4ccc(Cl)c(C)c4)CC3)CCCC2)no1 [Example 51] | 30 | 1620 | 
Cc1cc(CN2CCC(N3C(=O)CC[C@H]3C(=O)NCc3cc(C(C)C)no3)CC2)ccc1Cl [Example 52] | 28 | 1750 | 
Cc1cc(CN2CCC(N3C(=O)CC[C@H]3C(=O)NC3CCN(S(C)(=O)=O)C3)CC2)ccc1Cl (some centres unmarked) [Example 53] | 33 | 2010 | 
Cc1cc(CN2CCC(N3C(=O)CC[C@@H]3C(=O)N3CCc4cccc(Br)c4C3)CC2)ccc1Cl [Example 54] | 90 | 89 | 
COc1cccc2c1CN(C(=O)[C@@H]1CCC(=O)N1C1CCN(Cc3ccc(Cl)c(C)c3)CC1)CC2 [Example 55] | 78 | 235 | 
Cc1cc(CN2CCC(N3C(=O)CC[C@H]3C(=O)N3CCc4cccc(C(F)(F)F)c4C3)CC2)ccc1Cl [Example 56] | 76 | 254 | 
Cc1cc(CN2CCC(N3C(=O)CC[C@H]3C(=O)N3CCc4c(F)ccc(F)c4C3)CC2)ccc1Cl [Example 57] | 74 | 302 | 
Cc1cc(CN2CCC(N3C(=O)CC[C@H]3C(=O)N3CCc4cccc(F)c4C3)CC2)ccc1Cl [Example 58] | 76 | 221 | 
Cc1cc(CN2CCC(N3C(=O)CC[C@@H]3C(=O)N3CCc4c(F)cccc4C3)CC2)ccc1Cl [Example 59] | 66 | 402 | 
Cc1cc(CN2CCC(N3C(=O)CC[C@H]3C(=O)NC3CCN(c4ccccn4)CC3)CC2)ccc1Cl [Example 60] | 65 | 430 | 
Cc1cc(CN2CCC(N3C(=O)CC[C@H]3C(=O)N3Cc4ccccc4C(C)(C)C3)CC2)ccc1Cl [Example 61] | 57 | 492 | 
Cc1cc(CN2CCC(N3C(=O)CC[C@H]3C(=O)N3CCc4cc(F)ccc4C3)CC2)ccc1Cl [Example 62] | 63 | 507 | 
Cc1cc(CN2CCC(N3C(=O)CC[C@@H]3C(=O)N3Cc4ccccc4C3)CC2)ccc1Cl [Example 63] | 60 | 518 | 
Cc1cc(CN2CCC(N3C(=O)CC[C@@H]3C(=O)Nc3ccc4c(c3)CC(N(C)C)C4)CC2)ccc1Cl (some centres unmarked) [Example 64] | 60 | 545 | 
Cc1cc(CN2CCC(N3C(=O)CC[C@@H]3C(=O)N3CCc4c(cccc4C(F)(F)F)C3)CC2)ccc1Cl [Example 65] | 57 | 602 | 
Cc1cc(CN2CCC(N3C(=O)CC[C@H]3C(=O)Nc3cccc(Cc4ccncc4)c3)CC2)ccc1Cl [Example 66] | 81 | 658 | 
COCC(NC(=O)C1CCC(=O)N1C1CCN(Cc2ccc(Cl)c(C)c2)CC1)c1nc2ccc(Cl)cc2[nH]1 (centres unmarked) [Example 67] | 52 | 700 | 
Cc1cc(CN2CCC(N3C(=O)CC[C@@H]3C(=O)NCc3cccc4[nH]ccc34)CC2)ccc1Cl [Example 68] | 48 | 715 | 
Cc1cc(CN2CCC(N3C(=O)CC[C@H]3C(=O)NCc3ccnn3C)CC2)ccc1Cl [Example 69] |  |  | 55
Cc1cc(CN2CCC(N3C(=O)CC[C@H]3C(=O)NCc3ccc(Cl)nc3C)CC2)ccc1Cl [Example 70] | 46 | 791 | 
COc1cccc2c1CCN(C(=O)[C@@H]1CCC(=O)N1C1CCN(Cc3ccc(Cl)c(C)c3)CC1)C2 [Example 71] | 49 | 810 | 

Structure (SMILES) | inhibition at 1 µM (1 μM test compound) [%] | Ki [nM] | CCR3 % inh @ 1 μM (1 μM test compound, 1 µM) [%]
COc1ccc2c(c1)CN(C(=O)[C@@H]1CCC(=O)N1C1CCN(Cc3ccc(Cl)c(C)c3)CC1)CC2 [Example 72] | 48 | 875 | 
Cc1cc(CN2CCC(N3C(=O)CC[C@H]3C(=O)N3CCc4ccc(F)cc4C3)CC2)ccc1Cl [Example 73] | 48 | 922 | 
Cc1cc(CN2CCC(N3C(=O)CC[C@@H]3C(=O)N3CCc4ccc([N+](=O)[O-])cc4C3)CC2)ccc1Cl [Example 74] | 46 | 927 | 
Cc1cc(CN2C3CCC2CC(N2C(=O)CC[C@@H]2C(=O)Nc2cccc(N(CC(=O)N4CCC4)S(C)(=O)=O)c2)C3)ccc1Cl (some centres unmarked) [Example 75] | 97 | 30 | 
Cc1cc(CN2C3CCC2CC(N2C(=O)CC[C@@H]2C(=O)Nc2cccc(N(CC(=O)N(C)C)S(C)(=O)=O)c2)C3)ccc1Cl (some centres unmarked) [Example 76] | 97 | 37 | 
Cc1cc(CN2C3CCC2CC(N2C(=O)CC[C@@H]2C(=O)Nc2cccc(-c4nnnn4C)c2)C3)ccc1Cl (some centres unmarked) [Example 77] | 96 | 38 | 
Cc1cc(CN2C3CCC2CC(N2C(=O)CC[C@@H]2C(=O)Nc2cccc(N(CC(=O)N(C)C)S(=O)(=O)C4CC4)c2)C3)ccc1Cl (some centres unmarked) [Example 78] | 94 | 50 | 
CCS(=O)(=O)N(CC(=O)N(C)C)c1cccc(NC(=O)[C@H]2CCC(=O)N2C2CC3CCC(C2)N3Cc2ccc(Cl)c(C)c2)c1 (some centres unmarked) [Example 79] | 91 | 52 | 
CCNS(=O)(=O)c1cccc(NC(=O)[C@H]2CCC(=O)N2C2CC3CCC(C2)N3Cc2ccc(Cl)c(C)c2)c1 (some centres unmarked) [Example 80] | 95 | 55 | 
Cc1cc(CN2C3CCC2CC(N2C(=O)CC[C@@H]2C(=O)Nc2cccc(C(N)=O)c2)C3)ccc1Cl (some centres unmarked) [Example 81] | 89 | 111 | 
CNC(=O)c1cccc(NC(=O)[C@H]2CCC(=O)N2C2CC3CCC(C2)N3Cc2ccc(Cl)c(C)c2)c1 (some centres unmarked) [Example 84] | 77 | 232 | 
Cc1cc(CN2C3CCC2CC(N2C(=O)CC[C@@H]2C(=O)Nc2cc(C4CC4)nn2C)C3)ccc1Cl (some centres unmarked) [Example 85] | 68 | 350 | 
Cc1nccc(-c2cccc(NC(=O)[C@H]3CCC(=O)N3C3CC4CCC(C3)N4Cc3ccc(Cl)c(C)c3)c2)n1 (some centres unmarked) [Example 86] | 65 | 419 | 
CCn1cc(NC(=O)[C@H]2CCC(=O)N2C2CCN(Cc3ccc(Cl)c(C)c3)CC2)cc1C(=O)OC [Example 91] | 98 | 18 | 
CCOC(=O)c1cc(NC(=O)[C@H]2CCC(=O)N2C2CCN(Cc3ccc(Cl)c(C)c3)CC2)no1 [Example 93] | 95 | 29 | 
COC(=O)c1cc(NC(=O)[C@H]2CCC(=O)N2C2CCN(Cc3ccc(Cl)c(C)c3)CC2)cn1C [Example 94] | 94 | 52 | 
CCOC(=O)c1cc(NC(=O)[C@H]2CCC(=O)N2C2CCN(Cc3ccc(Cl)c(C)c3)CC2)nn1C [Example 95] | 94 | 40 | 
COC(=O)c1ccc2c(c1)CCN(C(=O)[C@H]1CCC(=O)N1C1CCN(Cc3ccc(Cl)c(C)c3)CC1)C2 [Example 96] | 51 | 670 | 
COC(=O)CC(NC(=O)[C@@H]1CCC(=O)N1C1CCN(Cc2ccc(Cl)c(C)c2)CC1)c1ccccn1 (some centres unmarked) [Example 97] | 50 | 669 | 
CCOC(=O)Cc1csc(NC(=O)[C@H]2CCC(=O)N2C2CCN(Cc3ccc(Cl)c(C)c3)CC2)n1 [Example 98] | 75 | 202 | 
COC(=O)c1csc(NC(=O)[C@H]2CCC(=O)N2C2CCN(Cc3ccc(Cl)c(C)c3)CC2)n1 [Example 99] | 91 | 67 | 
CCOC(=O)c1sc(NC(=O)[C@H]2CCC(=O)N2C2CCN(Cc3ccc(Cl)c(C)c3)CC2)nc1C [Example 100] | 100 | 7 | 
